{"source": "patent US20260240852A1", "about": "“Use of Oral JAK Kinase Inhibitors to Treat Lichen Planus” (Mayo Foundation for Medical Education and Research, priority 2023, published 2026)", "type_in_all_cases": "in vivo, human", "key": {"[1]": {"test_system": "patients with biopsy-proven cutaneous LP", "experiment": "Open-label, single-arm phase 2 trial of oral baricitinib in cutaneous lichen planus: clinical efficacy", "details": "dose escalation, after 12 weeks of 4 mg daily, five patients"}, "[2]": {"test_system": "patients with biopsy-proven cutaneous LP", "experiment": "Open-label, single-arm phase 2 trial of oral baricitinib in cutaneous lichen planus: clinical efficacy", "method": "A clinical study was conducted in which 12 patients with biopsy-proven LP were trialed on oral baricitinib at a daily dose of 2 mg for 16 weeks. Other inclusionary criteria included having at least 4 lesions of LP at baseline. The mean age of participants was 63.6 years. The vast majority were female and identified as Caucasian. A quarter were under-represented minorities. The mean duration of disease for all patients was 2.2 years. Five of the 12 participants had hypertrophic LP, and 11 were refractory to prior therapy. All but one patient had previously trialed topical steroids. Almost half (41.7%) had failed oral or IM steroids.\nThe primary outcome of this study was PGA at week 16, with treatment response defined as greater than 50% improvement with a PGA grade of 0 to 3. Non-responsive was defined as PGA 4 and 5. Secondary endpoints included changes from baseline to week 16 in mCAILS, pruritus scores, Skindex-16, BSA, and total lesion count.\nTrial Design. A single-arm, open-label, phase 2, […] trial was conducted at Mayo Clinic, Arizona (ClinicalTrials.gov identifier NCT05188521). The Mayo Clinic Institutional Review Board approved the study (IRB 21-003075), and all patients provided written informed consent. Twelve patients with biopsy-proven cutaneous LP were administered oral baricitinib 2 mg once daily for 16-weeks. The primary endpoint was an overall response by Physician Global Assessment (PGA) of skin at week 16, with treatment response defined as PGA 0 to 3 (with ≥50% score reduction). Secondary outcomes were changes in mCAILS, total body lesion count, affected BSA, pruritus numeric rating scale (NRS), pruritus verbal rating scale (VRS), pruritus visual analog scale (VAS), pain NRS, and Skindex-16. Patients were evaluated at baseline (week 0) and weeks 2, 4, 8, 12, and 16. […] Complete responders at week 16 were reassessed at week 20 and partial responders at week 16 were reassessed at week 32, after an off-therapy period of 4 weeks, respectively.\n(§1) Assessments of treatment efficacy, adverse events (AEs), and QoL were completed at each study visit. All lesions were annotated, photographed, and scored using the mCAILS criteria. 16 All clinical assessments were performed by the principal investigator and co-investigators (ARM, MRP, SZ) with questionable lesions scored by 2 investigators. The revised National Cancer Institute Common Terminology Criteria for Adverse Events version 5.0 was used for AE reporting. Due to travel issues, one patient withdrew from the study after week 8. An intention-to-treat (ITT) analysis was used with the patient's last observation to impute week 16 data.\nEligibility Criteria. Patients aged ≥18 years with biopsy-proven cutaneous LP were eligible for the trial. Both treatment-naïve and treatment-refractory disease were included. Key exclusion criteria included predominantly non-cutaneous variants of LP, active infections, and other active inflammatory cutaneous conditions.\nStatistical Analysis. Patient demographics, clinical characteristics, and outcomes were summarized as mean, standard deviation, median, interquartile range for continuous variables, and frequency and percentages for categorical variables. Primary and secondary outcome differences between baseline and week 16 were compared using Wilcoxon signed rank test for continuous variables and McNemar's test for binary variables. One patient withdrew from the study after week 8, and this patient's last observation (week 8) was used to impute week 16 data in the ITT analysis.\nExact binomial method was used to calculate the treatment response rate at week 16 and its corresponding 95% confidence interval. All analyses were conducted with R version 4.1.2 (R Foundation for Statistical Computing, Vienna, Austria). The cut-off for statistical significance was set as 0.05."}, "[3]": {"experiment": "Adverse event assessment in the baricitinib LP trial (CTCAE version 5.0)", "method": "as §1"}, "[4]": {"details": "five dose-escalation patients at week 16 (after 2 mg daily), start of dose escalation"}, "[5]": {"details": "oral 2 mg once daily, baseline to week 16, ITT"}, "[6]": {"details": "oral 2 mg once daily, baseline to week 16, ITT, P 0.002"}, "[7]": {"details": "oral 2 mg once daily, baseline to week 16, ITT, P 0.003"}}, "note": "Values joined by “and” are separate entries in the source; they are usually repeats but may differ in a detail not shown here. Equal entries are not always repeated."}
{"smiles": "CCS(=O)(=O)N1CC(CC#N)(n2cc(-c3ncnc4[nH]ccc34)cn2)C1", "note": "[baricitinib]", "values": [{"measurement": "Patients almost clear (PGA grade 1)", "setting": "[1]", "value": 20.0, "unit": "%"}, {"measurement": "Patients completely clear of disease (PGA grade 0)", "setting": "[1]", "value": 60.0, "unit": "%"}, {"measurement": "Patients with slight improvement (PGA grade 4)", "setting": "[1]", "value": 20.0, "unit": "%"}, {"measurement": "Patients with PGA grade 1", "setting": "[2]; [4]", "value": 80.0, "unit": "%"}, {"measurement": "Patients with PGA grade 4", "setting": "[2]; [4]", "value": 20, "unit": "%"}, {"measurement": "Mean total body lesion count", "setting": "[2]; oral 2 mg daily, by week 16, 146 at baseline (first report)", "value": 8}, {"measurement": "Treatment response (PGA), patients", "setting": "[2]; oral 2 mg daily, week 1", "value": 37.5, "unit": "%"}, {"measurement": "Treatment response (PGA), patients", "setting": "[2]; oral 2 mg daily, week 12", "value": 100, "unit": "%"}, {"measurement": "Patients with a PGA grade of 0 or 1 (completely clear and almost clear)", "setting": "[2]; oral 2 mg daily, week 16 (primary endpoint), all but one patient", "value": 90.9, "unit": "%"}, {"measurement": "BSA affected (%), Range, Difference", "setting": "[2]; [5]", "value": "−9.8 to −0.1", "unit": "%"}, {"measurement": "Pain NRS, Range, Difference", "setting": "[2]; [5]", "value": "−8.0 to 0.0"}, {"measurement": "Pruritus NRS, Range, Difference", "setting": "[2]; [5]", "value": "−8.0 to −0.0"}, {"measurement": "Pruritus VAS, Range, Difference", "setting": "[2]; [5]", "value": "−7.7 to 1.5"}, {"measurement": "Skindex-16 emotional, Range, Difference", "setting": "[2]; [5]", "value": "−34.0 to 0.0"}, {"measurement": "Skindex-16 functional, Range, Difference", "setting": "[2]; [5]", "value": "−15.0 to 0.0"}, {"measurement": "Skindex-16 overall, Range, Difference", "setting": "[2]; [5]", "value": "−58.0 to 0.0"}, {"measurement": "Skindex-16 symptom, Range, Difference", "setting": "[2]; [5]", "value": "−19.0 to 0.0"}, {"measurement": "Total Body Lesion Count, Range, Difference", "setting": "[2]; [5]", "value": "−570.0 to −4.0"}, {"measurement": "mCAILS, Range, Difference", "setting": "[2]; [5]", "value": "−14.6 to −5.0"}, {"measurement": "BSA affected (%), Mean (SD), Difference", "setting": "[2]; [6]", "value": "−3.9 (2.9) %"}, {"measurement": "Total Body Lesion Count, Mean (SD), Difference", "setting": "[2]; [6]", "value": "−134.8 (157.0)"}, {"measurement": "mCAILS, Mean (SD), Difference", "setting": "[2]; [6]", "value": "−10.6 (2.9)"}, {"measurement": "Pruritus NRS, Mean (SD), Difference", "setting": "[2]; [7]", "value": "−5.3 (2.6)"}, {"measurement": "Pruritus VAS, Mean (SD), Difference", "setting": "[2]; [7]", "value": "−5.0 (2.6)"}, {"measurement": "Pain NRS, Mean (SD), Difference", "setting": "[2]; oral 2 mg once daily, baseline to week 16, ITT, P 0.005", "value": "−5.6 (2.7)"}, {"measurement": "Skindex-16 overall, Mean (SD), Difference", "setting": "[2]; oral 2 mg once daily, baseline to week 16, ITT, P 0.008", "value": "−37.3(18.3)"}, {"measurement": "Pain NRS4, patients achieving", "setting": "[2]; oral 2 mg once daily, week 16", "value": 66.7, "unit": "%"}, {"measurement": "Pruritus NRS improvement >4 from baseline (NRS4), patients achieving", "setting": "[2]; oral 2 mg once daily, week 16", "value": 75.0, "unit": "%"}, {"measurement": "PGA Non-responsive (n, %)", "setting": "[2]; oral 2 mg once daily, week 16, ITT, 12 patients", "value": 16.7, "unit": "%"}, {"measurement": "PGA Responsive (n, %)", "setting": "[2]; oral 2 mg once daily, week 16, ITT, 12 patients, response = PGA 0 to 3 with ≥50% score reduction", "value": 83.3, "unit": "%"}, {"measurement": "BSA affected (%), Mean (SD), Week 16", "setting": "[2]; oral 2 mg once daily, week 16, ITT, baseline 4.9 (3.7), P 0.002", "value": "1.0% and 1.0 (2.5) %"}, {"measurement": "Skindex-16 functional, Mean (SD), Week 16", "setting": "[2]; oral 2 mg once daily, week 16, ITT, baseline 11.6 (10.2), P 0.012", "value": "4.5 (9.0)"}, {"measurement": "mCAILS, Mean (SD), Week 16", "setting": "[2]; oral 2 mg once daily, week 16, ITT, baseline 12.3 (3.2), P 0.002", "value": "1.7 (3.3)"}, {"measurement": "Skindex-16 symptom, Mean (SD), Week 16", "setting": "[2]; oral 2 mg once daily, week 16, ITT, baseline 16.4 (6.0), P 0.005", "value": "3.7 (7.0)"}, {"measurement": "Skindex-16 emotional, Mean (SD), Week 16", "setting": "[2]; oral 2 mg once daily, week 16, ITT, baseline 29.9 (9.0), P 0.003", "value": "9.0 (12.4)"}, {"measurement": "Skindex-16 overall, Mean (SD), Week 16", "setting": "[2]; oral 2 mg once daily, week 16, ITT, baseline 59.0 (22.1), P 0.008", "value": "16.9 (28.7)"}, {"measurement": "Skindex-16 functional, Range, Week 16", "setting": "[2]; oral 2 mg once daily, week 16, ITT, baseline range 0.0-30.0", "value": "0.0-30.0"}, {"measurement": "BSA affected (%), Range, Week 16", "setting": "[2]; oral 2 mg once daily, week 16, ITT, baseline range 0.1-12.0", "value": "0.0-8.5%"}, {"measurement": "Pruritus NRS, Range, Week 16", "setting": "[2]; oral 2 mg once daily, week 16, ITT, baseline range 1.0-10.0", "value": "0.0-10.0"}, {"measurement": "Pruritus VAS, Range, Week 16", "setting": "[2]; oral 2 mg once daily, week 16, ITT, baseline range 2.7-8.8", "value": "0.0-9.0"}, {"measurement": "Pain NRS, Range, Week 16", "setting": "[2]; oral 2 mg once daily, week 16, ITT, baseline range 4.0-10.0", "value": "0.0-10.0"}, {"measurement": "Skindex-16 symptom, Range, Week 16", "setting": "[2]; oral 2 mg once daily, week 16, ITT, baseline range 4.0-24.0", "value": "0.0-24.0"}, {"measurement": "Total Body Lesion Count, Range, Week 16", "setting": "[2]; oral 2 mg once daily, week 16, ITT, baseline range 4.0-600.0", "value": "0.0-117.0"}, {"measurement": "mCAILS, Range, Week 16", "setting": "[2]; oral 2 mg once daily, week 16, ITT, baseline range 7.0-18.6", "value": "0.0-8.9"}, {"measurement": "Skindex-16 emotional, Range, Week 16", "setting": "[2]; oral 2 mg once daily, week 16, ITT, baseline range 17.0-42.0", "value": "0.0-42.0"}, {"measurement": "Skindex-16 overall, Range, Week 16", "setting": "[2]; oral 2 mg once daily, week 16, ITT, baseline range 35.0-96.0", "value": "0.0-96.0"}, {"measurement": "Overall Skindex-16 score, mean decrease from baseline to week 16", "setting": "[2]; oral 2 mg once daily, SD 18.3, p=0.008", "value": 37.3}, {"measurement": "Treatment response (PGA), patients", "setting": "[2]; week 20, after 4 weeks of being off-therapy", "value": 100, "unit": "%"}, {"measurement": "Total adverse events", "setting": "[3]; 12 patients, oral baricitinib", "value": 12}, {"measurement": "AEs leading to discontinuation", "setting": "[3]; in vivo", "value": "No AEs led to the discontinuation"}, {"measurement": "Serious adverse events", "setting": "[3]; in vivo", "value": "Serious adverse events did not occur"}, {"measurement": "Adverse events related / probably related to the study drug", "setting": "[3]; low neutrophil count (neutropenia), mild, not deemed serious", "value": "one and A single AE of neutropenia"}, {"measurement": "AEs that were mild", "setting": "[3]; of 12 AEs", "value": 58.3, "unit": "%"}, {"measurement": "AEs that were moderate", "setting": "[3]; of 12 AEs", "value": 25.0, "unit": "%"}, {"measurement": "Adverse events unrelated or unlikely to be related to baricitinib", "setting": "[3]; of 12 AEs", "value": 11}, {"measurement": "Absolute neutrophil count of the drug-related AE", "setting": "[3]; the one mild AE deemed probably related to the study drug", "value": "7.8e+08", "unit": "L⁻¹"}]}
